For one assay, the system named is HeLa. The experiment in a line: Cytotoxicity against human HeLa cells by MTT assay. Format: functional, cell-based.
A further assay relates to L1210. Kind of assay: Cytotoxicity against mouse L1210 cells by MTT assay. Format: functional, cell-based.

Molecules are shown by their SMILES.

As to `C[C@@H]1CC[C@]2(C)[C@H](CC[C@@H](O)[C@]2(C)O)[C@@]12C=C(c1ccoc1)OC2` [CROTINSULARIN], the values for the IC50 with HeLa and in the assay on L1210 were 148 µM and 128 µM, respectively.

For the molecule `C[C@]1(CO)[C@@H]2CC[C@@]34C[C@H]5[C@@H](C[C@H]3[C@]2(C)CC[C@H]1O)[C@]5(C)C4`, the IC50 is 97 µM in the assay on HeLa and 91 µM with L1210.

Consider `CC1(C)[C@@H](O)CC[C@@]2(C)[C@@H]3C[C@@H]4[C@@H]5C[C@@]3(CC[C@@H]12)C[C@@]45C`, for which the IC50 was over 200 µM with HeLa and 133 µM with L1210.

With `C[C@@]12CCC[C@@](C)(C(=O)O)[C@@H]1CC[C@@]13C[C@H]4[C@@H](C[C@H]12)[C@]4(C)C3`, the IC50 with HeLa and in the assay with L1210 was 99 µM in each case.

On to `C[C@@H]1CC[C@]2(C)[C@H](CC[C@@H](O)[C@]2(C)O)[C@@]1(C)CC(=O)c1ccoc1`, for which the IC50 in the assay with HeLa is over 200 µM; with L1210 it was 98 µM.

Consider `CC1(C)C(=O)CC[C@@]2(C)[C@@H]3C[C@@H]4[C@@H]5C[C@@]3(CC[C@@H]12)C[C@@]45C`, for which the IC50 turned out to be 131 µM in the assay with HeLa and 103 µM in the assay with L1210.
